Experiments:
[1] = Reduction in weight gain of rats on a high fat diet (two-week treatment); assay type: in vivo, Sprague-Dawley rats; details: for % Reduction: treatment minus vehicle % weight gain
Method: Reduction in Weight Gain: Three- to four-month-old (475-550 grams) male, Sprague-Dawley rats (individually housed) were used to assess compounds for their ability to prevent weight gain. At the onset of chronic experiments, rats had been maintained (ad libitum access) on a “high fat” diet (BioServ Diet #F3282 or Research Diets #12451) for approximately one month. Individual body weights and water consumptions were recorded three times per week throughout the duration of the experiment. After approximately two weeks of data collection, rats were counter-balanced to produce treatment groups with equivalent mean body weights. Under isofluorane-induced anesthesia, rats were surgically implanted (subscapular, subcutaneous [sc] placement) with osmotic mini-pumps (Alzet 2mL2) containing the appropriate drug concentration (based on mean body weights and calculated durations of delivery). Alternatively, for studies using the oral route of administration, rats were dosed by gavage daily over 14 days at a volume of 3 mL/kg. Data collection was continued under drug treatment for approximately two more weeks. Change in body weight (expressed in grams) was calculated for the treatment interval. In this assay, vehicle-treated rats typically gain approximately 35-40 grams (+9%) over the two-week interval. Treatment effects are presented in Table 3 as % Weight Gain=[(Body Weight at End of Drug Infusion−Baseline Body Weight)/Baseline Body Weight]×100%, for both Vehicle and Treatment groups; as well as % Reduction=(% Weight Gain for Treatment group−% Weight Gain for Vehicle group). Body weights throughout the treatment period are presented in FIGS. 11-15 as the percentage of baseline body weight. Similar superscripts in the Dose column of Table 3 denote values derived from the same experiment (to facilitate comparisons between individual treatments and co-administrations). Statistical analyses were performed using a 1-way ANOVA (analysis of variance) followed by a Bonferroni multiple comparison test with the overall alpha set at 0.05. In Table 3, asterisks (*) denote significant effects compared to vehicle-treated rats, while letters (a or b) denote significant effects compared to rats treated with a single compound (“a” for significance from antidepressant and “b” for significance from telenzepine). In Table 3, one symbol denotes p<0.05, two symbols denote p<0.01 and three symbols denote p<0.001). The symbols used for denoting statistical significance may be different in the corresponding figures.

[2] = Appetite suppression: high fat food consumption in fasted rats (4-Hour and 24-Hour Consumption); assay type: in vivo, Sprague-Dawley rats
Text: Appetite Suppression: Three-month-old (300-350 grams) male, Sprague-Dawley rats (individually housed) were used to assess compounds for their appetite suppressant effects. Rats were acclimatized to a “high fat” food diet (BioServ Diet #F3282 or Research Diets #12451) for two weeks prior to testing (access to food and water ad libitum). One day prior to the experiment (at 5:00 PM), food was removed from the cages in order to motivate feeding when the food was returned the following morning (water remained available throughout the experiment). Prior to presentation of the food, rats (n=8-10/dose group) were dosed intraperitoneally (ip) or orally (po) with the compound under investigation, returned to their home cage and immediately given a pre-weighed amount of food. Four hours after administration, the food was removed from the cage, weighed, recorded (4-Hour Consumption) and returned to the rat until the following morning. Twenty-four hours after administration, the remaining food was again weighed and recorded (24-Hour Consumption). Cumulative consumption (expressed in grams) was calculated for both the four and the twenty-four hour intervals. In this assay, vehicle-treated rats typically consume approximately 8 grams over the four-hour interval and approximately 25 grams over the twenty-four-hour interval.
Treatment effects are presented in Table 1 and FIGS. 1-5 (4-Hour Consumption) and Table 2 and FIGS. 6-10 (24-Hour Consumption). The effects are given as both Raw Consumption (in grams ±SEM [1 standard error of the mean]) and as % Reduction in 4-Hour or 24-Hour Consumption=[1-(Consumption following Drug Treatment/Consumption following Vehicle Treatment)]×100%. Similar superscripts in the Dose column of Tables 1 and 2 denote values derived from the same experiment (to facilitate comparisons between individual treatments and co-administrations). Statistical analyses were performed using a 1-way ANOVA (analysis of variance) followed by a Bonferroni multiple comparison test with the overall alpha set at 0.05. In Tables 1 and 2, asterisks (*) denote significant effects compared to vehicle-treated rats, while letters (a or b) denote significant effects compared to rats treated with a single compound (“a” for significance from antidepressant and “b” for significance from telenzepine). In Tables 1 and 2, one symbol denotes p<0.05, two symbols denote p<0.01 and three symbols denote p<0.001). The symbols used for denoting statistical significance may be different in the corresponding figures.

[3] = directly injected into the midbrain; cited from earlier work
[4] = 24 h, 10 mg/kg ip, experiment e
[5] = 24 h, 10 mg/kg po, experiment c
[6] = 24 h, 30 mg/kg po, experiment c

SMILES: Cc1scc2c1N(C(=O)CN1CCN(C)CC1)c1ccccc1NC2=O [Telenzepine, 4,9-Dihydro-3-methyl-4-[(4-methyl-1-piperazinyl)acetyl]-10H-thieno[3,4-b][1,5]benzodiazepin-10-one]
- Treatment: % Weight Gain ([1]; 0.3 mg/kg sc, experiment c): 4.4 ± 0.6%
- % Reduction ([1]; 0.3 mg/kg sc, experiment c): −0.9%
- Treatment: % Weight Gain ([1]; 1 mg/kg po, experiment d): 3.3 ± 0.6%
- % Reduction ([1]; 1 mg/kg po, experiment d): −3.1%
- reduction in body weight compared to vehicle treated rats ([1]; 3 mg/kg of telenzepine alone): 3.8%
- Treatment: % Weight Gain ([1]; 3 mg/kg sc, experiment a): 1.5 ± 1.0%
- % Reduction ([1]; 3 mg/kg sc, experiment a): −7.1%
- Treatment: % Weight Gain ([1]; 3 mg/kg sc, experiment b): 4.3 ± 0.8%
- % Reduction ([1]; 3 mg/kg sc, experiment b): −3.8%
- % Reduction in Consumption ([2]; 4 h, 1 mg/kg ip, experiment b): 43%
- Treatment Consumption ([2]; 4 h, 1 mg/kg ip, experiment b): 4.0 ± 0.50 g/4 Hrs
- % Reduction in Consumption ([2]; 4 h, 1 mg/kg ip, experiment e): 38%
- Treatment Consumption ([2]; 4 h, 1 mg/kg ip, experiment e): 5.7 ± 0.63 g/4 Hrs
- Treatment Consumption ([2]; 4 h, 3 mg/kg ip, experiment a): 4.2 ± 0.36 g/4 Hrs
- % Reduction in Consumption ([2]; 4 h, 3 mg/kg ip, experiment a, 3 mg/kg): 45%
- % Reduction in Consumption ([2]; 4 h, 3 mg/kg ip, experiment a, listed as telenzepine, 3 mg/kg): 45%
- Treatment Consumption ([2]; 4 h, 3 mg/kg ip, experiment b): 4.5 ± 0.40 g/4 Hrs
- % Reduction in Consumption ([2]; 4 h, 3 mg/kg ip, experiment b, 3 mg/kg): 35%
- % Reduction in Consumption ([2]; 4 h, 3 mg/kg ip, experiment b, listed as telenzepine, 3 mg/kg): 35%
- % Reduction in Consumption ([2]; 4 h, 3 mg/kg ip, experiment e): 40%
- Treatment Consumption ([2]; 4 h, 3 mg/kg ip, experiment e): 5.5 ± 0.60 g/4 Hrs
- % Reduction in Consumption ([2]; 4 h, 10 mg/kg ip, experiment e): 56%
- Treatment Consumption ([2]; 4 h, 10 mg/kg ip, experiment e): 4.1 ± 0.55 g/4 Hrs
- % Reduction in Consumption ([2]; 4 h, 10 mg/kg po, experiment c): 28%
- Treatment Consumption ([2]; 4 h, 10 mg/kg po, experiment c): 7.4 ± 0.64 g/4 Hrs
- % Reduction in Consumption ([2]; 4 h, 30 mg/kg po, experiment c): 36%
- Treatment Consumption ([2]; 4 h, 30 mg/kg po, experiment c): 6.6 ± 1.01 g/4 Hrs
- % Reduction in Consumption ([2]; 24 h, 1 mg/kg ip, experiment b): 16%
- Treatment Consumption ([2]; 24 h, 1 mg/kg ip, experiment b): 20.9 ± 0.78 g/24 Hrs
- % Reduction in Consumption ([2]; 24 h, 1 mg/kg ip, experiment e): 18%
- Treatment Consumption ([2]; 24 h, 1 mg/kg ip, experiment e): 23.6 ± 1.01 g/24 Hrs
- Treatment Consumption ([2]; 24 h, 3 mg/kg ip, experiment a): 17.5 ± 1.38 g/24 Hrs
- % Reduction in Consumption ([2]; 24 h, 3 mg/kg ip, experiment a, 3 mg/kg): 27%
- % Reduction in Consumption ([2]; 24 h, 3 mg/kg ip, experiment a, listed as telenzepine, 3 mg/kg): 27%
- Treatment Consumption ([2]; 24 h, 3 mg/kg ip, experiment b): 19.4 ± 0.94 g/24 Hrs
- % Reduction in Consumption ([2]; 24 h, 3 mg/kg ip, experiment b, 3 mg/kg): 22%
- % Reduction in Consumption ([2]; 24 h, 3 mg/kg ip, experiment b, listed as telenzepine, 3 mg/kg): 22%
- % Reduction in Consumption ([2]; 24 h, 3 mg/kg ip, experiment e): 32%
- Treatment Consumption ([2]; 24 h, 3 mg/kg ip, experiment e): 19.7 ± 0.95 g/24 Hrs
- % Reduction in Consumption [2, 4]: 50%
- Treatment Consumption [2, 4]: 14.5 ± 1.29 g/24 Hrs
- % Reduction in Consumption [2, 5]: 39%
- Treatment Consumption [2, 5]: 18.5 ± 2.33 g/24 Hrs
- % Reduction in Consumption [2, 6]: 56%
- Treatment Consumption [2, 6]: 13.3 ± 2.69 g/24 Hrs
- effect on consumption ([2]; all doses tested (ip), given alone): significantly reduced consumption
- GABA efflux [3]: reduced GABA efflux

Source: patent publication US8748419B2, “Treating obesity with muscarinic receptor M1 antagonists” (priority 2006, dated 2014)
